# Measured values: patent US10098350B2, “Fungicidal amides” (E. I. DU PONT DE NEMOURS AND COMPANY, priority 2013, dated 2018)
# Columns and labels:
# Type in all cases: in vivo
# Botrytis cinerea = test: Test A: tomato seedlings sprayed with test suspension, inoculated with Botrytis cinerea (gray mold), visual disease rating; settings: Cmpd. No. unmarked; 100 = 100% disease control, 0 = no control relative to controls
# Description: (§1) General protocol for preparing test suspensions for Tests A-E: the test compounds were first dissolved in acetone in an amount equal to 3% of the final volume and then suspended at the desired concentration (in ppm) in acetone and purified water (50/50 mix by volume) containing 250 ppm of the surfactant Trem® 014 (polyhydric alcohol esters). The resulting test suspensions were then used in Tests A-E. Samples were applied to plants at either a 10 ppm (**), 40 ppm, 50 ppm (*) or 200 ppm (#) test solution to the point of run-off on the test plants with the equivalent of a rate of 40 g ai/ha, 160 g ai/ha, 200 g ai/ha, or 800 g ai/ha, respectively.
# The test suspension was sprayed to the point of run-off on tomato seedlings. The following day the seedlings were inoculated with a spore suspension of Botrytis cinerea (the causal agent of gray mold on many crops) and incubated in a saturated atmosphere at 20° C. for 48 h, and moved to a growth chamber at 27° C. for 2 days, after which time visual disease ratings were made.
# (§2) Results for Tests A-E are given in Table A. In the Table, a rating of 100 indicates 100% disease control and a rating of 0 indicates no disease control (relative to the controls). A dash (-) indicates no test results.
# [1] = test system: Stagonospora nodorum (also known as Septoria nodorum); test: Test B: wheat seedlings sprayed with test suspension, inoculated with Stagonospora nodorum (wheat glume blotch), visual disease rating
# Description: as §1
# (§3) The test suspension was sprayed to the point of run-off on wheat seedlings. The following day the seedlings were inoculated with a spore suspension of Stagonospora nodorum (also known as Septoria nodorum; the causal agent of wheat glume blotch) and incubated in a saturated atmosphere at 20° C. for 48 h, and then moved to a growth chamber at 20° C. for 6 days, after which time visual disease ratings were made.
# as §2
# [2] = test system: Puccinia recondite f. sp. tritici; test: Test D: wheat seedlings sprayed with test suspension, inoculated with Puccinia recondite f. sp. tritici (wheat leaf rust), visual disease rating
# Description: as §1
# as §3, with “Puccinia recondite f. sp. tritici; (the” for “Stagonospora nodorum (also known as Septoria nodorum; the”, “leaf rust)” for “glume blotch)”, “24” for “48”
# as §2
# [3] = test system: Erysiphe graminis f. sp. tritici; test: Test E: wheat seedlings sprayed with test suspension, inoculated with Erysiphe graminis f. sp. tritici (wheat powdery mildew), visual disease rating
# Description: as §1
# The test suspension was sprayed to the point of run-off on wheat seedlings. The following day the seedlings were inoculated with a spore dust of Erysiphe graminis f. sp. tritici, (the causal agent of wheat powdery mildew) and incubated in a growth chamber at 20° C. for 7 or 8 days, after which time visual disease ratings were made.
# as §2
# Septoria tritici = test: Test C: wheat seedlings sprayed with test suspension, inoculated with Septoria tritici (wheat leaf blotch), visual disease rating
# Description: as §1
# The test suspension was sprayed to the point of run-off on wheat seedlings. The following day the seedlings were inoculated with a spore suspension of Septoria tritici (the causal agent of wheat leaf blotch) and incubated in a saturated atmosphere at 24° C. for 48 h, and then moved to a growth chamber at 20° C. for 21 days, after which time visual disease ratings were made.
# as §2
# [4] = Cmpd. No. unmarked, 100 = 100% disease control, 0 = no control relative to controls
# [5] = Cmpd. No. marked '*' (other test rate; meaning of mark not shown)
smiles,measurement,setting,value
Cn1cc(C(=O)N(Cc2c(Cl)cc(-n3cccn3)cc2Cl)C2CC2)c(C(F)F)n1 [compound 24],Test A rating (% disease control),Botrytis cinerea,0%
same,Test B rating (% disease control),[1]; [4],100%
same,Test D rating (% disease control),[2]; [4],99%
same,Test E rating (% disease control),[3]; [4],90%
Cn1cc(C(=O)N(Cc2c(Cl)cc(-n3ccc(C(F)(F)F)n3)cc2Cl)C2CC2)c(C(F)F)n1 [compound 36],Test A rating (% disease control),Botrytis cinerea,0%
same,Test B rating (% disease control),[1]; [4],99%
same,Test D rating (% disease control),[2]; [4],99%
same,Test E rating (% disease control),[3]; [4],90%
Cn1cc(C(=O)N(Cc2cc(-n3ccc(C(F)(F)F)n3)ccc2Br)C2CC2)c(C(F)F)n1 [compound 32],Test A rating (% disease control),Botrytis cinerea,0%
same,Test B rating (% disease control),[1]; [4],0%
same,Test D rating (% disease control),[2]; [4],0%
same,Test E rating (% disease control),[3]; [4],97%
COc1cc(-n2ccc(C(F)(F)F)n2)ccc1CN(C(=O)c1c(C(F)F)nn(C)c1F)C1CC1 [compound 25],Test A rating (% disease control),Botrytis cinerea,0%
same,Test B rating (% disease control),[1]; [4],100%
same,Test D rating (% disease control),[2]; [4],100%
same,Test E rating (% disease control),[3]; [4],98%
CC(c1cc(-n2ccc(C(F)(F)F)n2)ccc1OC(F)(F)F)N(C(=O)c1c(C(F)F)nn(C)c1F)C1CC1 (stereo not drawn) [compound 133],Test B rating (% disease control),[1]; [5],100%
same,Test C rating (% disease control),Septoria tritici; [5],92%
same,Test D rating (% disease control),[2]; [5],68%
same,Test E rating (% disease control),[3]; [5],94%
Cc1cnn(-c2ccc(CN(C(=O)c3c(C(F)F)nn(C)c3F)C3CC3)c(Cl)c2)c1 [compound 144],Test B rating (% disease control),[1]; [4],100%
same,Test C rating (% disease control),Septoria tritici; [4],99%
same,Test D rating (% disease control),[2]; [4],97%
same,Test E rating (% disease control),[3]; [4],99%
Cc1ccc(-n2ccc(C(F)(F)F)n2)cc1C(C)N(C(=O)c1c(C(F)F)nn(C)c1F)C1CC1 (stereo not drawn) [compound 52],Test B rating (% disease control),[1]; [4],100%
same,Test C rating (% disease control),Septoria tritici; [4],99%
same,Test D rating (% disease control),[2]; [4],93%
same,Test E rating (% disease control),[3]; [4],99%
Cn1cc(C(=O)N(Cc2cccc(-n3ccc(C(F)(F)F)n3)c2Cl)C2CC2)c(C(F)F)n1 [compound 38],Test A rating (% disease control),Botrytis cinerea,14%
same,Test B rating (% disease control),[1]; [4],0%
same,Test D rating (% disease control),[2]; [4],41%
same,Test E rating (% disease control),[3]; [4],69%
CC(c1cc(-n2ccc(C(F)(F)F)n2)ccc1Br)N(C(=O)c1c(C(F)F)nn(C)c1F)C1CC1 (stereo not drawn) [compound 53],Test B rating (% disease control),[1]; [4],100%
same,Test C rating (% disease control),Septoria tritici; [4],97%
same,Test D rating (% disease control),[2]; [4],74%
same,Test E rating (% disease control),[3]; [4],96%
Cc1ccc(C(C)N(C(=O)c2cn(C)nc2C(F)F)C2CC2)cc1-n1ccc(C(F)(F)F)n1 (stereo not drawn) [compound 26],Test A rating (% disease control),Botrytis cinerea,0%
same,Test B rating (% disease control),[1]; [4],99%
same,Test D rating (% disease control),[2]; [4],0%
same,Test E rating (% disease control),[3]; [4],81%
Cc1cc(-n2ccc(C(F)(F)F)n2)cnc1CN(C(=O)c1cn(C)nc1C(F)F)C1CC1 [compound 124],Test B rating (% disease control),[1]; [4],0%
same,Test C rating (% disease control),Septoria tritici; [4],94%
same,Test D rating (% disease control),[2]; [4],0%
same,Test E rating (% disease control),[3]; [4],73%
Cn1nc(C(F)F)c(C(=O)N(Cc2ccc(-n3ccc(C(F)(F)F)n3)cc2OC(F)(F)F)C2CC2)c1F [compound 23],Test A rating (% disease control),Botrytis cinerea,0%
same,Test B rating (% disease control),[1]; [4],98%
same,Test D rating (% disease control),[2]; [4],99%
same,Test E rating (% disease control),[3]; [4],98%
Cn1cc(C(=O)N(Cc2c(F)cc(-n3ccc(C(F)(F)F)n3)cc2F)C2CC2)c(C(F)F)n1 [compound 71],Test B rating (% disease control),[1]; [4],92%
same,Test C rating (% disease control),Septoria tritici; [4],99%
same,Test D rating (% disease control),[2]; [4],0%
same,Test E rating (% disease control),[3]; [4],91%
CC(C)c1cc(-n2ccc(C(F)(F)F)n2)ccc1CN(C(=O)c1c(C(F)F)nn(C)c1F)C1CC1 [compound 121],Test B rating (% disease control),[1]; [4],100%
same,Test C rating (% disease control),Septoria tritici; [4],95%
same,Test D rating (% disease control),[2]; [4],100%
same,Test E rating (% disease control),[3]; [4],99%
Cn1nc(C(F)F)c(C(=O)N(Cc2ccc(-n3nccn3)cc2Cl)C2CC2)c1F [compound 64],Test B rating (% disease control),[1]; [4],100%
same,Test C rating (% disease control),Septoria tritici; [4],98%
same,Test D rating (% disease control),[2]; [4],100%
same,Test E rating (% disease control),[3]; [4],97%
